In the test the test system is resistant clinical isolates of C. albicans. In words: Screen of resistant clinical isolates, single dose, broth microdilution (growth OD600). Format: cell-based, Candida albicans. The settings on record: compound 25 3 μM + fluconazole 64 μg/mL, 16 h. From the text: (Flowers, S. A., et al. Eukaryotic Cell 2012, 11, 1289-1299.) The strains grow at dramatically different rates.
On the technique in general: Dilution methods test growth across graded concentrations, often in twofold steps.

As to `Cc1c(Cl)ccc2c1NC(=O)[C@@]21[C@H]2C(=O)N(c3ccccc3)C(=O)[C@H]2[C@H]2CN(C(=O)OCc3ccccc3)CCN21` (racemic) [Compound 25, (±)-benzyl (3R,3a′R,3b'S,9a'S)-6-chloro-7-methyl-1′,2,3′-trioxo-2′-phenyl-2′,3′,3a′,3b′,4′,6′,7′,9a′-octahydrospiro[indoline-3,9′-pyrrolo[3′,4′:3,4]pyrrolo[1,2-a]pyrazine]-5′(1′H)-carboxylate], the “Growth (OD600) +Cpd25 + Fluc” value is recorded as 2.64 (clinical isolate 15); 0.43 (clinical isolate 16); 0.79 (clinical isolate 17); 2.02 (clinical isolate 21); 1.28 (clinical isolate 22); 0.60 (clinical isolate 23). Besides, the “Growth (OD600) +Cpd25 + Fluc” value is on record as 1.59 (clinical isolate 25); 0.83 (clinical isolate 26); 5.38 (clinical isolate 30); 0.88 (clinical isolate 33); 1.07 (clinical isolate 36); 6.52 (clinical isolate 41). Also, the “Growth (OD600) +Cpd25 + Fluc” value reads like this: (clinical isolate 45) 1.03; (clinical isolate 49) 11.29.

Values taken from patent publication US11174267B2, “Spiroindolinones and therapeutic uses thereof” (The Regents of the University of California, priority 2015, dated 2021).
